This is an account of results in PMC7618104, “The GLP-1 analogue, exendin-4, improves bone material properties and strength through a central relay in ovariectomized mice” (American journal of physiology. Endocrinology and metabolism, 2025).

Assay [1] has as its system ovariectomized BALB/c mice. As to the kind of experiment: microCT trabecular microstructure, proximal tibia metaphysis. It counts as in vivo, mouse (BALB/cJRj, female). The note with it: 28 days, vs OVX+vehicle, n=8. The procedure:
(§1) Eight animals were randomly assigned to each group.
(§2) All animals received intraperitoneal administration of calcein green (10 mg/kg) 10 days and 2 days before sacrifice. Animals were housed in social groups and maintained in a 12 h:12 h light/dark cycle. They had free access to water and food. At necropsy, blood was collected by intracardiac aspiration into EDTA-treated tubes. Blood samples were centrifuged at 13,000 g for 15 min, aliquoted and stored at -80°C until plasma levels of exendin-4 (#EK-070-94, Phoenix pharmaceuticals, Burlingame, CA) and calcitonin (NBP3-06734, Bio-Techne Ltd, Abingdon, UK) were measured according to the manufacturer’s protocol. Plasma levels of the bone remodeling markers C-terminal telopeptide of collagen type I (CTx-I – RatLaps, Immunodiagnostic Systems Ltd, Boldon, UK) and N-terminal propeptide of type I collagen (P1NP - Rat/mouse P1NP, Immunodiagnostic Systems Ltd) were measured according to the manufacturers’ recommendation. Right femurs were wrapped in saline-soaked gauze and frozen at -20°C until use. Right tibiae were fixed in ethanol-based fixative and stored at 4°C until use. No specific inclusion or exclusion criteria were applied for animal selection. […] Additionally, correct implantation of the cerebral perfusion cannulas for icv-administered animals was verified at necropsy. All animals meeting these criteria were included in the study.
MicroCT analyses were performed at the proximal metaphysis of the right tibia and at the mid-diaphysis of the right femur with a Bruker 1272 microtomograph operated at 70 kV, 140 μA, 1000 ms integration time and imaging in ethanol 70. The isotropic pixel size was fixed at 4 μm, the rotation step at 0.25° and exposure was performed with a 0.5 mm aluminum filter. Hydroxyapatite phantoms (250 mg/cm^3 and 750 mg/cm^3) were used for calibration. Reconstruction of 2D projections was done with the NRecon software (Version 1.6.10.2). For tibial analysis, a trabecular volume of interest was located 0.5 mm below the growth plate at the proximal end and extended 2 mm down. Trabecular bone was separated from cortical bone with an automatic contouring script in CTan software (Version 1.20.8.0). The right femur was used for cortical microarchitecture. The region analyzed (0.5 mm) was centered at the midpoint between the third trochanter and the distal growth plate. Bone was segmented from soft tissue using global thresholding set at 300 mg/cm^3 for trabecular bone and 700 mg/cm^3 for cortical bone. All histomorphometrical parameters were measured with the CTan software according to guidelines and nomenclature proposed by the American Society for Bone and Mineral Research ([31]).

Assay [2] relates to splenocytes isolated from BALB/c ovariectomized (OVX) mice. As to the kind of experiment: Osteoclast differentiation assay (TRAP staining). The note with it: 10 nM Exendin-4, M-CSF + RANKL, 7 days. It counts as cell-based, mouse (BALB/cJRj). The procedure:
To investigate the potential effect of Exendin-4 (Ex-4) on osteoclast differentiation, we used splenocytes isolated from BALB/c ovariectomized (OVX) mice (BALB/cJRj; Janvier Labs, Saint-Berthevin, France). Mice were ovariectomized at 12 weeks of age, and splenocytes were isolated 4 weeks post-ovariectomy. The splenocytes were cultured in osteoclast differentiation medium (α-MEM supplemented with 10% FBS, 100 U/mL penicillin/streptomycin, 50 ng/mL macrophage colony-stimulating factor (M-CSF, Bio-Techne, Noyal-Chatillon-sur-Seiche, France), and 30 ng/mL receptor activator of NF-κB ligand (RANKL, Bio-Techne) in the presence or absence of 10 nM Exendin-4. D-Ala2-GIP at a concentration of 10 nM was used as positive controls, as previously reported ([39]). Cells were cultured for 7 days, with media changes every 2 days. Osteoclast differentiation was evaluated by TRAP staining, as previously described ([39]).
Supplementary Figure S4 – Effect of Exendin-4 on osteoclast differentiation in vitro. Splenocytes were isolated from BALB/c ovariectomized (OVX) mice at 12 weeks of age, 4 weeks post-ovariectomy, and cultured in osteoclast differentiation medium containing M-CSF and RANKL, with or without 10 nM Exendin-4. Cells were cultured for 7 days, and osteoclast differentiation was assessed by TRAP staining.
D-Ala2-GIP was used at 10 nM and served as positive controls. […]

Assay [3] deals with ovariectomized BALB/c mice. As to the kind of experiment: Tissue material strength of femur (from peak bending moment and geometry). The assay is classed as in vivo, mouse (BALB/cJRj, female). To be noted: 28 days, vs OVX+vehicle, n=8. The procedure:
as §1
The whole-bone strength of right femurs was assessed by 3-point bending in accordance with published guidelines ([34]). Three-point bending strength was measured with a constant span length of 10 mm. Bones were tested in the antero-posterior axis with the posterior surface facing upward, centered on the support and the pressing force was applied vertically to the midshaft of the bone. Each bone was tested fully hydrated and at room temperature with a loading speed of 2 mm.min^-1 until failure with a 500 N load cell on an Instron 5942 device (Instron, Elancourt, France) and the load-displacement curve was recorded at a 100 Hz rate by the Bluehill 3 software (Instron). Ultimate load, ultimate displacement, stiffness and work to fracture were calculated as indicated in ([34]). The yield point was determined as the point at which a regression line that represents a 10% loss in stiffness crosses the load-displacement curve. Post-yield displacement was computed as the displacement between yielding and fracture. Peak bending moment was calculated as one-half the ultimate load multiplied by one-half the span length ([34]). The peak bending moment is related to bone tissue material properties and bone midshaft geometry by the following equation: M=σb×IML/cAP […]

Assay [4] relates to animal models of bone fragility. The note with it: subcutaneous, OVX model; cited from earlier work. From the text:
These observations formed the basis for investigating the potential utility of a GLP-1r agonist for the management of bone fragility. Ex-4 has already been administered subcutaneously in preclinical models of bone fragility, including the OVX model used in the present study. Previous studies have reported positive effects of Ex-4 that increased bone mineral density, trabecular microstructure and circulating calcitonin leve ...

The test system of assay [5] is ovariectomized BALB/c mice. As to the kind of experiment: Plasma levels of calcitonin and bone remodeling markers (CTx-I, P1NP). The assay is classed as in vivo, mouse (BALB/cJRj, female). To be noted: 28 days, n=8; for Calcitonin (plasma) / P1NP (plasma) / CTx-I (plasma): mean ± SD. As for the experimental part: as §1, §2

exendin-4 [Ex-4]: the “change in Tb.N” value in assay [1] (icv Ex-4 70 pmol/day, p<0.001) is recorded as 4%. For the same substance, the “change in BV/TV” value in assay [1] (icv Ex-4 70 pmol/day, p=0.005) is on record as “+6%”. For the same substance, the “increase in Tb.N” value in assay [1] (s.c. Ex-4 ~700 pmol/day, p<0.001) came to 6%. In assay [1] (s.c. Ex-4 ~700 pmol/day, p=0.002), the “increase in BV/TV” value is 11%. In addition, the osteoclast differentiation entry in assay [2] was “No significant differences in osteoclast differentiation”. Further, the “increase in tissue material strength” value in assay [3] (icv Ex-4 70 pmol/day, p=0.005) came to 9%; in assay [3] (s.c. Ex-4 ~700 pmol/day, p=0.043), 11%. For the same substance, the “bone mineral density, trabecular microstructure, calcitonin, osteoclast parameters, bone strength” value in assay [4] is “increased bone mineral density, trabecular microstructure and circulating calcitonin levels and reduced osteoclast parameters, resulting in greater bone strength”. In addition, the “Calcitonin (plasma)” value in assay [5] (OVX + Ex-4, icv 70 pmol/day) was determined as 47 ± 10 pg/mL; in assay [5] (OVX + Ex-4, s.c. ~700 pmol/day, p<0.001 vs. OVX+Vehicle), 111 ± 15 pg/mL. The “P1NP (plasma)” value in assay [5] (OVX + Ex-4, icv 70 pmol/day) turned out to be 28.0 ± 2.2 ng/mL; in assay [5] (OVX + Ex-4, s.c. ~700 pmol/day), 25.2 ± 4.0 ng/mL. Further, the “CTx-I (plasma)” value in assay [5] (OVX + Ex-4, icv 70 pmol/day, p<0.01 vs. OVX+Vehicle) is 8.5 ± 1.7 ng/mL; in assay [5] (OVX + Ex-4, s.c. ~700 pmol/day, p<0.05 vs. OVX+Vehicle) it was 11.7 ± 2.0 ng/mL. In assay [5] (icv Ex-4 70 pmol/day, OVX), the circulating calcitonin levels entry is recorded as “no effects on circulating calcitonin levels”. Besides, the “change in plasma CTX-I” value is on record as -38% in assay [5] (icv Ex-4 70 pmol/day, vs OVX+vehicle, p=0.005) and -20% in assay [5] (s.c. Ex-4 ~700 pmol/day, vs OVX+vehicle, p=0.012). Further, the “increase in plasma circulating calcitonin” value in assay [5] (s.c. Ex-4 ~700 pmol/day, vs OVX+vehicle, p<0.001) is reported as 152%.
